The values below come from US20230092163A1, “COMPOUNDS AND COMPOSITIONS FOR TREATING CONDITIONS ASSOCIATED WITH STING ACTIVITY” (IFM Due, Inc., priority 2019, published 2023).

This test concerns the target STING (Homo sapiens, UniProt Q86WV6, G230A/H232R/R293Q/R71H). The experiment in a line: STING reporter assay: THP1-Dual KO-IFNAR2 cells stimulated with 2′3′cGAMP, luciferase reporter activity. In kind it is cell-based. The conditions noted are these: 15 μM 2′3′cGAMP, 24h. In a few lines: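 THP1-Dual KO-IFNAR2 cells (2×10E6 cells/mL) treated with compounds at 0.0017-100 μM, then stimulated with 2′3′cGAMP (15 μM final) delivered by Lipofectamine 2000; 24 h at 37° C. Supernatant luciferase read by QUANTI-Luc Plus luminescence; EC50 from dose-response.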
(In general: In a reporter assay the amount or activity of a reporter protein is the signal.)

Chain of STING (Q86WV6 whole entry R71H/G230A/H232R/R293Q): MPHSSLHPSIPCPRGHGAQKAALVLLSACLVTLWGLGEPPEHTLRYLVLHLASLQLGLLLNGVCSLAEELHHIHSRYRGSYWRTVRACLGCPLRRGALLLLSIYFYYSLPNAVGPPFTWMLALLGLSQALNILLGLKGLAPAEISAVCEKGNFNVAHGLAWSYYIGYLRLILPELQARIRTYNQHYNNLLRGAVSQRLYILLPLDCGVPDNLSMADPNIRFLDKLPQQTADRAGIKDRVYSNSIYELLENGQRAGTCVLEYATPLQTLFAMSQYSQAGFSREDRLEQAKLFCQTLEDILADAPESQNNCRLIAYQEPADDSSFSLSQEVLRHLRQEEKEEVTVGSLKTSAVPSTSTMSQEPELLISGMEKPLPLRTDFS

The term EC50 denotes the concentration giving half of the maximal effect. A lower EC50 goes with higher potency in that assay. In the case of `FC(F)(F)c1ccc2cnc(Nc3ccc4cc[nH]c4c3)nc2c1` [Compound 432, N-(1H-indol-6-yl)-7-(trifluoromethyl)quinazol in-2-amine], the EC50 (numeric bounds) was over 30 µM.
For `c1cc(Nc2ccc3cc[nH]c3c2)nc(C2CC2)c1` [Compound 433, N-(6-cyclopropylpyridin-2-yl)-1H-indol-6-amine], the EC50 (numeric bounds) was over 30 µM.
In turn, `c1cnc2ccnc(Nc3ccc4cc[nH]c4c3)c2c1` [Compound 478, N-(1H-indol-6-yl)-1,6-naphthyridin-5-amine] yielded an EC50 (numeric bounds) of over 30 µM.
For `COC1CN(c2ncc(NC(=O)Nc3cc(Cl)c4cc[nH]c4c3)cc2C)C1` [Compound 498], the EC50 (numeric bounds) is over 30 µM.
Take `Cc1cc(NC(=O)Nc2ccc3c(F)c[nH]c3c2)cnc1N1CCC(F)(F)CC1` [Compound 499]: the EC50 (numeric bounds) was over 1.11 µM.
For the compound `Cc1cc(NC(=O)Nc2cc(Cl)c3cc[nH]c3c2)cnc1N1CCC(F)(F)CC1` [Compound 500], the EC50 (class symbols) was in the range of 0.2 to 1 µM.
Still for that read-out and setting: under `O=C(Nc1cc(F)cc(C(F)(F)F)c1)Nc1cc(CCO)c2cc[nH]c2c1` [Compound 501] stands 1 to 5 µM.
The same measure, in the same setting: under `COc1cc(NC(=O)NCc2cc(Cl)cc(C(F)(F)F)c2)cc2[nH]ccc12` [Compound 503] stands 0.2 to 1 µM.
`COc1cc(NC(=O)Nc2ccc(C(F)(F)F)cc2)cc2[nH]ccc12` [Compound 504] had an EC50 (class symbols) of 0.2 to 1 µM.
The compound `COCCc1cc(NC(=O)Nc2ccc(C(F)(F)F)cc2)cc2[nH]ccc12` [Compound 505] returned an EC50 (class symbols) of 1 to 5 µM.
Same read-out and setting: under `CC(NC(=O)Nc1cnc2cc[nH]c2c1)c1cc(Cl)cc(C(F)(F)F)c1` (centres unmarked) [Compound 506] stands 5 to 100 µM.
Same read-out and setting: under `O=C(NCc1cc(Cl)cc(C(F)(F)F)c1)Nc1cnc2cc[nH]c2c1` [Compound 507] stands 1 to 5 µM; under `CNS(=O)(=O)c1c[nH]c2cc(NC(=O)Nc3ccc(C(F)(F)F)cc3)ccc12` [Compound 508], 5 to 100 µM.
Still for that read-out and setting: under `O=C(Nc1cccc(C(F)(F)F)c1)Nc1cc(CCO)c2cc[nH]c2c1` [Compound 509, 1-(4-(2-hydroxyethyl)-1H-indol-6-yl)-3-(3-(trifluoromethyl)phenyl)urea] stands 1 to 5 µM.
Turning to `[N-]=[N+]=Nc1ccc(NC(=O)Nc2ccc3cc[nH]c3c2)cc1` [Compound 510, 1-(4-azidophenyl)-3-(1H-indol-6-yl)urea], the EC50 (class symbols) fell in the range of 1 to 5 µM.
Compound `N#Cc1cc(NC(=O)Nc2cnc(N3CC(F)(F)C3)c(F)c2)cc2[nH]ccc12` [Compound 511] gave an EC50 (numeric bounds) of over 30 µM.
Regarding `CNC(=O)OCCc1cc(NC(=O)Nc2ccc(C(F)(F)F)cc2)cc2[nH]ccc12` [Compound 512], the EC50 (class symbols) lay in the range of 1 to 5 µM.
Still for that read-out and setting: under `CN(C)CCc1cc(NC(=O)Nc2ccc(C(F)(F)F)cc2)cc2[nH]ccc12` [Compound 513] stands 5 to 100 µM; under `O=C(Nc1cnc(N2CC(F)(F)C2)c(Cl)c1)Nc1ccc2c(F)c[nH]c2c1` [Compound 514], 0.2 to 1 µM.
In the case of `O=C(Nc1ccc2c(F)c[nH]c2c1)Nc1ccc(N2CC(F)(F)C2)cn1` [Compound 515], the EC50 (numeric bounds) is over 30 µM.
Turning to `O=C(Nc1cnc(N2CC(F)(F)C2)c(F)c1)Nc1cc(Cl)c2cc[nH]c2c1` [Compound 516], the EC50 (class symbols) is 0.2 to 1 µM.
Under “numeric bounds”, `O=C(Nc1ccc(N2CC(F)(F)C2)nc1)Nc1ccc2c(F)c[nH]c2c1` [Compound 517] had an EC50 of over 30 µM.
For `O=C(Nc1ccc(C(F)(F)F)cc1)Nc1cc(Cl)c2c(F)c[nH]c2c1` [Compound 518], where the note is “class symbols”, the EC50 is 0.04 to 0.2 µM.
In the case of `O=C(NCCOc1cccnc1)Nc1ccc2cc[nH]c2c1` [Compound 519], the EC50 (class symbols) fell in the range of 5 to 100 µM.
`C[C@@H](NC(=O)Nc1cc(Cl)c2cc[nH]c2c1)c1cc(Cl)cc(C(F)(F)F)c1` [Compound 521, (R)-1-(4-chloro-1H-indol-6-yl)-3-(1-(3-chloro-5-(trifluoromethyl)phenyl)ethyl)urea]: the EC50 (class symbols) was in the range of 1 to 5 µM.
The compound `CC(=O)c1c[nH]c2cc(NC(=O)Nc3ccc(C(F)(F)F)cc3)ccc12` [Compound 522] showed an EC50 (numeric bounds) of over 30 µM.
As to `O=C(Nc1cccc(C(F)(F)F)c1)Nc1ccc2c(F)c[nH]c2c1` [Compound 523], the EC50 (class symbols) was 1 to 5 µM.
Still for that read-out and setting: under `O=C(NCCOc1ccccc1C(F)(F)F)Nc1ccc2cc[nH]c2c1` [Compound 524] stands 1 to 5 µM; under `O=C(NCCOc1cccc(C(F)(F)F)c1)Nc1ccc2cc[nH]c2c1` [Compound 525], 0.2 to 1 µM.
Compound `Cc1c(NC(=O)Nc2ccc(C(F)(F)F)cc2)ccc2c(C#N)c[nH]c12` [Compound 526] registered an EC50 (numeric bounds) of over 7.38 µM.
As for `Cc1ncccc1-n1cc(C#N)c2ccc(NC(=O)Nc3ccc(C(F)(F)F)cc3)cc21` [Compound 527], for the setting “class symbols”, the EC50 fell in the range of 5 to 100 µM.
Still for that read-out and setting: under `N#Cc1c[nH]c2cc(NC(=O)Nc3ccc(C(F)(F)F)cc3)cc(F)c12` [Compound 528] stands 1 to 5 µM.
Compound `CC(=O)n1cc(C#N)c2ccc(NC(=O)Nc3ccc(C(F)(F)F)cc3)cc21` [Compound 529] came in with an EC50 (class symbols) of 1 to 5 µM.
`N#Cc1c[nH]c2cc(NC(=O)Nc3cnc(N4CC(F)(F)C4)c(F)c3)ccc12` [Compound 530] came in with an EC50 (numeric bounds) of over 30 µM.
In turn, `O=C(Nc1cnc(N2CC(F)(F)C2)c(F)c1)Nc1ccc2c(F)c[nH]c2c1` [Compound 531] gave an EC50 (class symbols) of 0.2 to 1 µM.
With `N#Cc1c[nH]c2cc(NC(=O)NCc3cc(Cl)cc(C(F)(F)F)c3)ccc12` [Compound 532], the EC50 (numeric bounds) is over 30 µM.
`Cc1cc(NC(=O)Nc2ccc(C(F)(F)F)cc2)cc2[nH]cc(C#N)c12` [Compound 533]: under “class symbols”, the half-maximal effective concentration (EC50) was 1 to 5 µM.
Still for that read-out and setting: under `CC(=O)n1cc(F)c2ccc(NC(=O)Nc3ccc(C(F)(F)F)cc3)cc21` [Compound 534, 1-(1-acetyl-3-fluoro-1H-indol-6-yl)-3-(4-(trifluoromethyl)phenyl)urea] stands 0.2 to 1 µM.
In turn, `O=C(Nc1cc(F)cc(C(F)(F)F)c1)Nc1ccc2c(F)c[nH]c2c1` [Compound 535] displayed an EC50 (class symbols) of 0.2 to 1 µM.
On the same count and under the same terms, under `O=C(NCc1cc(Cl)cc(C(F)(F)F)c1)Nc1cc(Cl)c2cc[nH]c2c1` [Compound 536] stands 0.2 to 1 µM; under `CC(NC(=O)Nc1cc(Cl)c2cc[nH]c2c1)c1cc(Cl)cc(C(F)(F)F)c1` (centres unmarked) [Compound 537], 0.2 to 1 µM.
Still for that read-out and setting: under `O=C(NCc1cc(Cl)cc(C(F)(F)F)c1)Nc1ccc2c(F)c[nH]c2c1` [Compound 538] stands 5 to 100 µM.
On the same count and under the same terms, under `N#Cc1c[nH]c2cc(NC(=O)Nc3cccc(C(F)(F)F)c3)ccc12` [Compound 539] stands 5 to 100 µM.
As for `CNC(=O)Cc1c[nH]c2cc(NC(=O)Nc3ccc(C(F)(F)F)cc3)ccc12` [Compound 540], the EC50 (class symbols) is 5 to 100 µM.
For `CNC(=O)c1c[nH]c2cc(NC(=O)Nc3ccc(C(F)(F)F)cc3)ccc12` [Compound 541], the concentration giving a half-maximal response (EC50) (numeric bounds) was over 30 µM.
Take `O=C(Nc1cc(Cl)c2cc[nH]c2c1)NC1CCC2(CCCCC2)CC1` [Compound 542]: the EC50 (class symbols) was 0.2 to 1 µM.
On the same count and under the same terms, under `CNC(=O)c1cc(NC(=O)Nc2ccc(C(F)(F)F)cc2)cc2[nH]ccc12` [Compound 543] stands 5 to 100 µM.
For the setting “numeric bounds”, `Cn1cc(-n2cc(C#N)c3ccc(NC(=O)Nc4ccc(C(F)(F)F)cc4)cc32)cn1` [Compound 544] had an EC50 of over 30 µM.
Still for that read-out and setting: under `Cn1cc(-c2c[nH]c3cc(NC(=O)Nc4ccc(C(F)(F)F)cc4)ccc23)cn1` [Compound 545] stands over 30 µM.
As to `CN(C)Cc1cc(NC(=O)Nc2ccc(C(F)(F)F)cc2)cc2[nH]ccc12` [Compound 546], the EC50 (class symbols) fell in the range of 5 to 100 µM.
`CN(C)C(=O)c1cc(NC(=O)Nc2ccc(C(F)(F)F)cc2)cc2[nH]ccc12` [Compound 547] showed an EC50 (class symbols) of 5 to 100 µM.
The same measure, in the same setting: under `O=C(Nc1ccc(C2CC(F)(F)C2)c(F)c1)Nc1cc(Cl)c2cc[nH]c2c1` [Compound 548] stands 0.04 to 0.2 µM; under `Cc1ccc2nc(Nc3ccc4cc[nH]c4c3)ccc2c1C(F)(F)F` [Compound 549], 0.2 to 1 µM.
On the same count and under the same terms, under `Fc1ccc2nc(Nc3ccc4cc[nH]c4c3)ccc2c1C(F)(F)F` [Compound 550] stands 0.2 to 1 µM.
In turn, `Fc1cc2ccc(Nc3ccc4cc[nH]c4c3)nc2cc1C(F)(F)F` [Compound 551] showed an EC50 (class symbols) of 0.2 to 1 µM.
Regarding `Cc1cc2ccc(Nc3ccc4cc[nH]c4c3)nc2cc1C(F)(F)F` [Compound 552], the EC50 (class symbols) lay in the range of 0.2 to 1 µM.
Still for that read-out and setting: under `FC(F)(F)c1c(Cl)ccc2nc(Nc3ccc4cc[nH]c4c3)ccc12` [Compound 553] stands 0.2 to 1 µM; under `Fc1cc(C(F)(F)F)cc2nc(Nc3ccc4cc[nH]c4c3)ccc12` [Compound 554], 1 to 5 µM; under `FC(F)(F)c1ccc2ncc(Nc3ccc4cc[nH]c4c3)nc2c1` [Compound 555], 1 to 5 µM.
With `FC(F)(F)c1cc2nc(Nc3ccc4cc[nH]c4c3)ccc2cc1Cl` [Compound 556], under “class symbols”, the concentration giving a half-maximal response (EC50) lay within 1 to 5 µM.
As for `Cc1c(Nc2ccc3ccc(C(F)(F)F)cc3n2)ccc2cc[nH]c12` [Compound 557], the EC50 (numeric bounds) was over 30 µM.
`Fc1cc(C(F)(F)F)c2ccc(Nc3ccc4cc[nH]c4c3)nc2c1` [Compound 558] came in with an EC50 (class symbols) of 0.2 to 1 µM.
Turning to `Fc1ccc2ccc(Nc3ccc4cc[nH]c4c3)nc2c1` [Compound 559, 7-fluoro-N-(1H-indol-6-yl)quinolin-2-amine], where the note is “numeric bounds”, the EC50 was over 30 µM.
`c1cnc2nc(Nc3ccc4ccn(-c5ccc6cccnc6n5)c4c3)ccc2c1` [Compound 560, N-[1-(1,8-naphthyridin-2-yl)-1H-indol-6-yl]-1,8-naphthyridin-2-amine] returned an EC50 (class symbols) of 1 to 5 µM.
For the compound `COc1nc(Nc2ccc3cc[nH]c3c2)ccc1CO` [Compound 561, {6-[(1H-indol-6-yl)amino]-2-methoxypyridin-3-yl}methanol], where the note is “numeric bounds”, the EC50 was over 30 µM.
Under “class symbols”, `FC(F)(F)c1ccc2c(Cl)cc(Nc3ccc4cc[nH]c4c3)nc2c1` [Compound 562, 4-chloro-N-(1H-indol-6-yl)-7-(trifluoromethyl)quinolin-2-amine] came in with an EC50 of 5 to 100 µM.
Turning to `FC(F)(F)c1cc(Cl)cc2nc(Nc3ccc4cc[nH]c4c3)ccc12` [Compound 563], the EC50 (class symbols) fell in the range of 0.2 to 1 µM.
For `FC(F)(F)c1cc(Cl)c2ccc(Nc3ccc4cc[nH]c4c3)nc2c1` [Compound 564], the EC50 (class symbols) was 0.2 to 1 µM.
